The subject of this assay is test plant species. Put plainly: Post-emergent herbicidal activity test (greenhouse, foliar spray, visual growth reduction). Type of assay: in vivo. To be noted: post-emergence, 336 h, 140 g ai/ha, 14 days after application. Summed up:
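Visual percent injury (0-100) rated 14 d after treatment, relative to nontreated and solvent-blank plants. Test plants at first or second true leaf stage received an overhead track-sprayer application at 187 L/ha. Compounds were formulated in aqueous acetone/DMSO carrier containing crop oil concentrate and X-77 surfactant.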

Where [1] appears, read: ALOMY: blackgrass (Alopecurus myosuroides), read-out: Visual Growth Reduction (%) 14 Days After Application, ALOMY.
Where [2] appears, read: AMARE: redroot pigweed (Amaranthus retroflexus), read-out: Visual Growth Reduction (%) 14 Days After Application, AMARE.
Where [3] appears, read: AVEFA: wild oat (Avena fatua), read-out: Visual Growth Reduction (%) 14 Days After Application, AVEFA.
[4] abbreviates: CHEAL: lambsquarters (Chenopodium album), read-out: Visual Growth Reduction (%) 14 Days After Application, CHEAL.
Setting [5] is: CIRAR: canada thistle (Cirsium arvense), read-out: Visual Growth Reduction (%) 14 Days After Application, CIRAR.
The mark [6] stands for this setting: CYPES: yellow nutsedge (Cyperus esculentus), read-out: Visual Growth Reduction (%) 14 Days After Application, CYPES.
The mark [7] stands for this setting: DIGSA: crabgrass (Digitaria sanguinalis), read-out: Visual Growth Reduction (%) 14 Days After Application, DIGSA.
The mark [8] stands for this setting: ECHCG: barnyardgrass (Echinochloa crus-galli), read-out: Visual Growth Reduction (%) 14 Days After Application, ECHCG.
Where [9] appears, read: IPOHE: ivy-leaf morning glory (Ipomoea hederacea), read-out: Visual Growth Reduction (%) 14 Days After Application, IPOHE.
[10] abbreviates: KCHSC: kochia (Bassia scoparia), read-out: Visual Growth Reduction (%) 14 Days After Application, KCHSC.
[11] abbreviates: ORYSA: rice (Oryza sativa), read-out: Visual Growth Reduction (%) 14 Days After Application, ORYSA.
The mark [12] stands for this setting: SETFA: giant foxtail (Setaria faberi), read-out: Visual Growth Reduction (%) 14 Days After Application, SETFA.
Setting [13] is: SORVU: grain sorghum (Sorghum vulgare), read-out: Visual Growth Reduction (%) 14 Days After Application, SORVU.
[14] abbreviates: STEME: common chickweed (Stellaria media), read-out: Visual Growth Reduction (%) 14 Days After Application, STEME.
[15] abbreviates: TRZAS: wheat, spring (Triticum aestivum), read-out: Visual Growth Reduction (%) 14 Days After Application, TRZAS.

Where two headings read alike, the source gives them in different places.

Turning to `O=C(O)c1nc(-c2cc(Br)c(C(F)(F)F)cc2Cl)c(F)cc1Cl` [F181, 6-(5-Bromo-2-chloro-4-(trifluoromethyl)phenyl)-3-chloro-5-fluoropicolinic acid], the pest or weed control at 140 g/ha lay in the range of 30 to 44% under setting [1]; 95 to 100% under setting [2]; 30 to 44% under setting [3]; 95 to 100% under setting [4]; 75 to 84% under setting [5]; 45 to 59% under setting [6]. Moreover, the pest or weed control at 140 g/ha by setting is: under setting [7], 95 to 100%; under setting [8], 60 to 74%; under setting [9], 95 to 100%; under setting [10], 60 to 74%; under setting [11], 0 to 29%; under setting [12], 30 to 44%. The pest or weed control at 140 g/ha lay within 95 to 100% under setting [13], 0 to 29% under setting [14] and 45 to 59% under setting [15].
As to `O=C(O)c1nc(-c2cc3c(cc2Cl)OC(F)(F)O3)c(Cl)cc1Cl` [F182, 3,5-Dichloro-6-(6-chloro-2,2-difluorobenzo[d][1,3]dioxol-5-yl)picolinic acid], the pest or weed control at 140 g/ha is, setting by setting: under setting [1], 0 to 29%; under setting [2], 75 to 84%; under setting [3], 0 to 29%; under setting [4], 85 to 94%; under setting [5], 0 to 29%; under setting [6], 30 to 44%. The pest or weed control at 140 g/ha under setting [7] was 60 to 74%; the pest or weed control at 140 g/ha under setting [8] was 0 to 29%; the pest or weed control at 140 g/ha under setting [9] was in the range of 95 to 100%; the pest or weed control at 140 g/ha under setting [10] lay in the range of 45 to 59%; the pest or weed control at 140 g/ha under setting [11] was in the range of 0 to 29%; the pest or weed control at 140 g/ha under setting [12] lay in the range of 60 to 74%. Besides, the pest or weed control at 140 g/ha under setting [13] lay within 85 to 94%, the pest or weed control at 140 g/ha under setting [14] was in the range of 0 to 29% and the pest or weed control at 140 g/ha under setting [15] was in the range of 0 to 29%.
On to `O=C(O)c1nc(-c2cc3c(cc2Cl)OCO3)c(Cl)cc1Cl` [F183, 3,5-Dichloro-6-(6-chlorobenzo[d][1,3]dioxol-5-yl)picolinic acid], for which the pest or weed control at 140 g/ha lay in the range of 0 to 29% under setting [1]; 60 to 74% under setting [2]; 0 to 29% under setting [3]; 0 to 29% under setting [4]; 30 to 44% under setting [5]; 0 to 29% under setting [6]. Besides, the pest or weed control at 140 g/ha runs as follows: under setting [7], 0 to 29%; under setting [8], 0 to 29%; under setting [9], 75 to 84%; under setting [10], 0 to 29%; under setting [11], 0 to 29%; under setting [12], 0 to 29%. The pest or weed control at 140 g/ha runs as follows: under setting [13], 0 to 29%; under setting [14], 0 to 29%; under setting [15], 0 to 29%.
Regarding `COC(=O)c1nc(-c2ncc(Cl)c(C(F)F)c2Cl)ccc1Cl` [F184], the pest or weed control at 140 g/ha is, setting by setting: under setting [1], 0 to 29%; under setting [2], 60 to 74%; under setting [3], 0 to 29%; under setting [4], 60 to 74%; under setting [5], 45 to 59%; under setting [6], 0 to 29%. The pest or weed control at 140 g/ha reads like this: under setting [7], 60 to 74%; under setting [8], 85 to 94%; under setting [9], 95 to 100%; under setting [10], 0 to 29%; under setting [11], 30 to 44%; under setting [12], 85 to 94%. Besides, the pest or weed control at 140 g/ha was 95 to 100% under setting [13], 0 to 29% under setting [14] and 30 to 44% under setting [15].
Take `COC(=O)c1nc(-c2ccc(OC(F)(F)F)cc2)c(F)cc1Cl` [F185, Methyl 3-chloro-5-fluoro-6-(4-(trifluoromethoxy)phenyl)picolinate]: the pest or weed control at 140 g/ha under setting [1] lay in the range of 0 to 29%; the pest or weed control at 140 g/ha under setting [2] lay in the range of 0 to 29%; the pest or weed control at 140 g/ha under setting [3] lay in the range of 0 to 29%; the pest or weed control at 140 g/ha under setting [4] fell in the range of 45 to 59%; the pest or weed control at 140 g/ha under setting [5] fell in the range of 0 to 29%; the pest or weed control at 140 g/ha under setting [6] lay within 0 to 29%. Also, the pest or weed control at 140 g/ha lay in the range of 75 to 84% under setting [7]; 0 to 29% under setting [8]; 75 to 84% under setting [9]; 0 to 29% under setting [10]; 0 to 29% under setting [11]; 30 to 44% under setting [12]. Further, the pest or weed control at 140 g/ha is, setting by setting: under setting [13], 60 to 74%; under setting [14], 0 to 29%; under setting [15], 0 to 29%.
Regarding `COC(=O)c1nc(-c2ccc(C#N)cc2Cl)c(F)cc1Cl` [F186, Methyl 3-chloro-6-(2-chloro-4-cyanophenyl)-5-fluoropicolinate], the pest or weed control at 140 g/ha is, setting by setting: under setting [1], 0 to 29%; under setting [2], 75 to 84%; under setting [3], 0 to 29%; under setting [4], 85 to 94%; under setting [5], 75 to 84%; under setting [6], 45 to 59%. In addition, the pest or weed control at 140 g/ha runs as follows: under setting [7], 75 to 84%; under setting [8], 60 to 74%; under setting [9], 95 to 100%; under setting [10], 75 to 84%; under setting [11], 0 to 29%; under setting [12], 85 to 94%. Besides, the pest or weed control at 140 g/ha runs as follows: under setting [13], 85 to 94%; under setting [14], 0 to 29%; under setting [15], 30 to 44%.
Turning to `COC(=O)c1nc(-c2ccc(OC(F)(F)F)cc2F)c(F)cc1Cl` [F187, Methyl 3-chloro-5-fluoro-6-(2-fluoro-4-(trifluoromethoxy)phenyl)picolinate], the pest or weed control at 140 g/ha lay within 0 to 29% under setting [1]; 85 to 94% under setting [2]; 30 to 44% under setting [3]; 75 to 84% under setting [4]; 75 to 84% under setting [5]; 30 to 44% under setting [6]. For the same molecule, the pest or weed control at 140 g/ha reads like this: under setting [7], 85 to 94%; under setting [8], 45 to 59%; under setting [9], 95 to 100%; under setting [10], 45 to 59%; under setting [11], 0 to 29%; under setting [12], 75 to 84%. Moreover, the pest or weed control at 140 g/ha fell in the range of 95 to 100% under setting [13], 0 to 29% under setting [14] and 30 to 44% under setting [15].
Turning to `COC(=O)c1nc(-c2ccc3occc3c2)c(F)cc1Cl` [F188, Methyl 6-(benzofuran-5-yl)-3-chloro-5-fluoropicolinate], the pest or weed control at 140 g/ha was in the range of 0 to 29% under setting [1]; 0 to 29% under setting [2]; 0 to 29% under setting [3]; 60 to 74% under setting [4]; 45 to 59% under setting [5]; 0 to 29% under setting [6]. Also, the pest or weed control at 140 g/ha lay in the range of 30 to 44% under setting [7]; 0 to 29% under setting [8]; 30 to 44% under setting [9]; 0 to 29% under setting [10]; 0 to 29% under setting [11]; 0 to 29% under setting [12]. The pest or weed control at 140 g/ha by setting is: under setting [13], 0 to 29%; under setting [14], 0 to 29%; under setting [15], 0 to 29%.

The record behind these values is patent publication US20230017045A1, “PYRIDINE AND PYRIMIDINE CARBOXYLATE HERBICIDES AND METHODS OF USE THEREOF” (Dow AgroSciences LLC, priority 2017, published 2023).
